SMILES strings stand for the structures.

The target in the assay is IDO1 (Homo sapiens, UniProt P14902). Nature of the assay: IDO1 Cellular Assay in Hela Cells Stimulated with IFNγ. The assay is classed as cell-based. The following applies: IFNγ 100 ng/mL, 300 uM L-tryptophan, about 48 hours, fluorescence readout, read-out: IDO1 HELA Cell Assay, IC50. As to the method: Biological Assays IDO1 Cellular Assay in Hela Cells Stimulated with IFNγ
Chain of IDO1 (P14902 whole entry): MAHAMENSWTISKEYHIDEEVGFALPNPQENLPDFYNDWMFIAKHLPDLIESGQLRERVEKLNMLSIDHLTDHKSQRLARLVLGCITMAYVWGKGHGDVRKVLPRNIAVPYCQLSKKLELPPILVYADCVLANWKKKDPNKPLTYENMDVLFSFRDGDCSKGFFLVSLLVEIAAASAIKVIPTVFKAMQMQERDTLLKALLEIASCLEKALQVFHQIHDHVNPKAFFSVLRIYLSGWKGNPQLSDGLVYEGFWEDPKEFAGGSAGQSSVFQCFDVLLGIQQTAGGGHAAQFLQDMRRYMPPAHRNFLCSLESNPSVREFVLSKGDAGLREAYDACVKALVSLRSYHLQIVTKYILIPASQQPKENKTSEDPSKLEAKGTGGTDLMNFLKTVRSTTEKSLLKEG
Hela cells were cultured in complete Hela culture medium ([…], 10% heat-inactivated fetal bovine serum) and expanded to about 1×10^9 cells. The cells were then collected and frozen down at 10×10^6 cells/vial in 1 mL frozen medium (90% complete Hela culture medium, 10% DMSO).
Compounds to be tested were serially diluted in ten 3-fold steps in DMSO starting from 10 mM DMSO stocks in Echo low volume plate(s). Compound dilutions or DMSO alone were then dispensed from the dilution plate(s) into Greiner black 384-well assay plate(s) (catalog #781086, 50 nL/well) using an Echo 550 acoustic liquid handler (Labcyte).
Frozen Hela cells were thawed and transferred into Hela assay medium (99% complete Hela culture medium, 1% Pen/Strep) with 20 mL medium/vial of cells. The cells were spun down at 250 g in a table top centrifuge for 5 min and suspended in same volume of Hela assay medium. […] Sterile L-tryptophan were added to the cells with final concentration of 300 uM L-tryptophan. A small aliquot (2 mL/plate) of Hela cells were set aside and were not treated with IFNγ, to serve as the Max-E control. The rest of Hela cells were added with sterile IFNγ (Cat #285-IF, R & D systems) with a final concentration of 100 ng/mL.
Hela cells with and without IFNγ were dispensed to the respective wells of 384-well assay plates containing the compounds. The plates were incubated for about 48 hours at a 37° C., 5% CO2 incubator. Afterwards, 12 μL of 0.5 M methyl isonipecotate in dimethyl sulfoxide were added into each well and the plates were sealed and incubated at 37° C. without CO2 overnight. The plates were centrifuged for 1 min at 200×g. The resulting fluorescence was measured in a Spectramax plate reader (Molecular Devices) with a 400 nm excitation filter and a 510 nm emission filter.
Potencies were calculated by […] least squares fit to the four parameter logistic IC50 equation.
Regarding `CC(C)(C(=O)Nc1ccc(F)cc1)C12CC(NC(=O)c3ccc(Cl)c(Cl)c3)(C1)C2` [Example 101, 3,4-Dichloro-N-(3-(1-((4-fluorophenyl)amino)-2-methyl-1-oxopropan-2-yl)bicyclo[1.1.1]pentan-1-yl)benzamide], the IC50 was 0.0169 µM.
In the case of `C[C@H](C(=O)Nc1ccc(F)cc1)C12CC(NC(=O)c3ccc(Cl)c(Cl)n3)(C1)C2` [Example 149, (S)-5,6-dichloro-N-(3-(1-((4-fluorophenyl)amino)-1-oxopropan-2-yl)bicyclo[1.1.1]pentan-1-yl)picolinamide], the 50% inhibitory concentration (IC50) was found to be 0.0269 µM.
Take `CC(NC(=O)c1ccc(F)cc1)C12CC(NC(=O)c3ccc(Cl)c(Cl)c3)(C1)C2` (single isomer, unassigned) [Example 22, 3,4-Dichloro-N-(3-(1-(4-fluorobenzamido)ethyl)bicyclo [1.1.1]pentan-1-yl) Benzamide]: the IC50 turned out to be 0.0287 µM.
To `CC(C(=O)Nc1ccc(F)cc1)C12CC(NC(=O)c3ncccc3F)(C1)C2` (centres unmarked) [Example 137, 3-fluoro-N-[3-[2-(4-fluoroanilino)-1-methyl-2-oxo-ethyl]-1-bicyclo[1.1.1]pentanyl]pyridin-1-ium-2-carboxamide] belongs 0.387 µM; to `C[C@H](C(=O)Nc1cnc(Cl)c(Cl)c1)C12CC(NC(=O)c3ccc(Cl)c(Cl)c3)(C1)C2` [Example 93, (S)-3,4-dichloro-N-(3-(1-((5,6-dichloropyridin-3-yl)amino)-1-oxopropan-2-yl)bicyclo[1.1.1]pentan-1-yl)benzamide], 0.105 µM; to `CC(NC(=O)c1ccc(F)cc1)C12CC(NC(=O)c3ccc(Cl)c(Cl)c3)(C1)C2` (single isomer, unassigned) [Example 21, 3,4-Dichloro-N-(3-(1-(4-fluorobenzamido)ethyl)bicyclo [1.1.1]pentan-1-yl) Benzamide], 0.908 µM.
Turning to `C[C@H](C(=O)Nc1ccc(F)cc1)C12CC(NC(=O)Nc3cccc(C(F)(F)F)c3)(C1)C2` [Example 87, (S)-N-(4-fluorophenyl)-2-(3-(3-(3-(trifluoromethyl)phenyl)ureido)bicyclo[1.1.1]pentan-1-yl)propanamide], the IC50 amounted to 0.0903 µM.
As to `CC(C(=O)Nc1ccc(F)cc1)C12CC(NC(=O)c3cnnc4ccccc34)(C1)C2` (centres unmarked) [Example 135, N-[3-[2-(4-fluoroanilino)-1-methyl-2-oxo-ethyl]-1-bicyclo[1.1.1]pentanyl]cinnoline-4-carboxamide], the IC50 came out at 0.276 µM.
Consider `CC(C(=O)Nc1ccc(F)cc1)C12CC(NC(=O)c3ccn(C(F)F)n3)(C1)C2` (centres unmarked) [Example 131, 1-(difluoromethyl)-N-[3-[2-(4-fluoroanilino)-1-methyl-2-oxo-ethyl]-1-bicyclo[1.1.1]pentanyl]pyrazole-3-carboxamide], for which the IC50 came out at 0.248 µM.
In the case of `C[C@H](C(=O)Nc1ccc(F)cc1)C12CC(NC(=O)OCc3ccccc3)(C1)C2` [Example 78, benzyl (S)-(3-(1-((4-fluorophenyl)amino)-1-oxopropan-2-yl)bicyclo[1.1.1]pentan-1-yl)carbamate], the half-inhibitory concentration (IC50) was found to be 0.0218 µM.
To `CC(C(=O)Nc1ccc(F)cc1)C12CC(NC(=O)c3cccc(OC(F)(F)F)c3)(C1)C2` (centres unmarked) [Example 109, N-[3-[2-(4-fluoroanilino)-1-methyl-2-oxo-ethyl]-1-bicyclo[1.1.1]pentanyl]-3-(trifluoromethoxy)benzamide] belongs 0.0112 µM; to `Cc1noc(C(=O)NC23CC(C4(NC(=O)c5ccc(F)cc5)CC4)(C2)C3)n1` [Example 28, N-(3-(1-(4-fluorobenzamido)cyclopropyl)bicyclo[1.1.1]pentan-1-yl)-3-methyl-1,2,4-oxadiazole-5-carboxamide], 0.0722 µM; to `Cc1ccc(C(=O)NC23CC([C@H](C)C(=O)Nc4ccc(F)cc4)(C2)C3)cc1F` [Example 58, 3-fluoro-N-[3-[(1S)-2-(4-fluoroanilino)-1-methyl-2-oxo-ethyl]-1-bicyclo[1.1.1]pentanyl]-4-methyl-benzamide], 0.0166 µM.
`C[C@@H](C(=O)Nc1ccc(F)cc1)C12CC(NC(=O)c3cccc(Cl)c3F)(C1)C2` [Example 38, 3-chloro-2-fluoro-N-[3-[(1R)-2-(4-fluoroanilino)-1-methyl-2-oxo-ethyl]-1-bicyclo[1.1.1]pentanyl]benzamide]: the IC50 came out at 0.002 µM.
On to `COc1cc(C(=O)NC23CC(C(C)C(=O)Nc4ccc(F)cc4)(C2)C3)ccn1` (centres unmarked) [Example 125, N-[3-[2-(4-fluoroanilino)-1-methyl-2-oxo-ethyl]-1-bicyclo[1.1.1]pentanyl]-2-methoxy-pyridin-1-ium-4-carboxamide], for which the IC50 turned out to be 0.178 µM.
Take `CCc1ccnc(C(=O)NC23CC(C(C)C(=O)Nc4ccc(F)cc4)(C2)C3)c1` (centres unmarked) [Example 117, 4-ethyl-N-[3-[2-(4-fluoroanilino)-1-methyl-2-oxo-ethyl]-1-bicyclo[1.1.1]pentanyl]pyridin-1-ium-2-carboxamide]: the IC50 came out at 0.0735 µM.
Turning to `C[C@H](C(=O)Nc1ccc(F)cc1)C12CC(NC(=O)c3ccc(Cl)c(F)c3)(C1)C2` [Example 47, 4-chloro-3-fluoro-N-[3-[(1S)-2-(4-fluoroanilino)-1-methyl-2-oxo-ethyl]-1-bicyclo[1.1.1]pentanyl]benzamide], the IC50 is 0.152 µM.
As for `C[C@H](C(=O)Nc1ccc(F)cc1)C12CC(NC(=O)c3cncc(Cl)c3)(C1)C2` [Example 59, 5-chloro-N-[3-[(1S)-2-(4-fluoroanilino)-1-methyl-2-oxo-ethyl]-1-bicyclo[1.1.1]pentanyl]pyridin-1-ium-3-carboxamide], the IC50 stood at 0.00652 µM.
Next, `CC(C(=O)Nc1ccc(F)cc1)C12CC(NC(=O)Cc3ccccc3C(F)(F)F)(C1)C2` (centres unmarked) [Example 128, N-(4-fluorophenyl)-2-[3-[[2-[2-(trifluoromethyl)phenyl]acetyl]amino]-1-bicyclo[1.1.1]pentanyl]propanamide]: 0.194 µM.
In the case of `Cc1nc(C(=O)NC23CC(C4(NC(=O)c5ccc(F)cc5)CC4)(C2)C3)no1` [Example 30, N-(3-(1-(4-fluorobenzamido)cyclopropyl)bicyclo[1.1.1]pentan-1-yl)-5-methyl-1,2,4-oxadiazole-3-carboxamide], the IC50 worked out at 0.0477 µM.
As to `C[C@@H](C(=O)Nc1ccc(F)cc1)C12CC(NC(=O)c3cccc(Cl)n3)(C1)C2` [Example 33, (R)-6-Chloro-N-(3-(1-((4-fluorophenyl)amino)-1-oxopropan-2-yl)bicyclo[1.1.1]pentan-1-yl)picolinamide], the IC50 is 7.18 µM.
As to `O=C(NC1(C23CC(NC(=O)c4ccc(Cl)cn4)(C2)C3)CC1)c1ccc(F)cc1` [Example 25, 5-chloro-N-(3-(1-(4-fluorobenzamido)cyclopropyl)bicyclo[1.1.1]pentan-1-yl)picolinamide], the IC50 is 0.0832 µM.
Regarding `CC(C(=O)Nc1ccc(F)cc1)C12CC(NC(=O)c3cccc4ccncc34)(C1)C2` (centres unmarked) [Example 130, N-[3-[2-(4-fluoroanilino)-1-methyl-2-oxo-ethyl]-1-bicyclo[1.1.1]pentanyl]isoquinolin-2-ium-8-carboxamide], the IC50 worked out at 0.247 µM.
With `C[C@H](C(=O)Nc1ccc(F)cc1)C12CC(NC(=O)c3cccc(Cl)c3F)(C1)C2` [Example 51, 3-chloro-2-fluoro-N-[3-[(1S)-2-(4-fluoroanilino)-1-methyl-2-oxo-ethyl]-1-bicyclo[1.1.1]pentanyl]benzamide], the IC50 was determined as 0.226 µM.
As to `C[C@H](C(=O)Nc1ccc(F)cc1)C12CC(NC(=O)Nc3ccc(F)cc3)(C1)C2` [Example 85, (S)-N-(4-fluorophenyl)-2-(3-(3-(4-fluorophenyl)ureido)bicyclo [1.1.1]pentan-1-yl)propanamide], the IC50 came to 0.0732 µM.
To `CC(C(=O)Nc1ccc(F)cc1)C12CC(NC(=O)c3ccc(C(F)(F)F)cn3)(C1)C2` (centres unmarked) [Example 133, N-[3-[2-(4-fluoroanilino)-1-methyl-2-oxo-ethyl]-1-bicyclo[1.1.1]pentanyl]-5-(trifluoromethyl)pyridin-1-ium-2-carboxamide] belongs 0.259 µM; to `C[C@@H](C(=O)Nc1cnc(Cl)nc1)C12CC(NC(=O)c3ccc(Cl)c(Cl)c3)(C1)C2` [Example 90, (R)-3,4-dichloro-N-(3-(1-((2-chloropyrimidin-5-yl)amino)-1-oxopropan-2-yl)bicyclo[1.1.1]pentan-1-yl)benzamide], 0.118 µM.
Take `Cc1noc(C(=O)NC23CC(C(C)C(=O)Nc4ccc(F)cc4)(C2)C3)n1` (centres unmarked) [Example 114, N-[3-[2-(4-fluoroanilino)-1-methyl-2-oxo-ethyl]-1-bicyclo[1.1.1]pentanyl]-3-methyl-1,2,4-oxadiazole-5-carboxamide]: the IC50 was determined as 0.0596 µM.
Take `C[C@@H](C(=O)Nc1cnc(Cl)c(F)c1)C12CC(NC(=O)c3ccc(Cl)c(Cl)c3)(C1)C2` [Example 89, (R)-3,4-dichloro-N-(3-(1-((6-chloro-5-yl)amino)-1-oxopropan-2-yl)bicyclo[1.1.1]pentan-1-yl)benzamide]: the half-maximal inhibitory concentration (IC50) turned out to be 0.0654 µM.

These data come from patent US11478461B2, “[1.1.1] bicyclo compounds as indoleamine 2,3-dioxygenase inhibitors” (Merck Sharp & Dohme Corp., priority 2018, dated 2022).
